Key:
[1] = tested on: yellow foxtail (SETLU); test: Test 5 field trial, postemergence; type: in vivo, Setaria glauca; conditions: atrazine 1120, glufosinate 470 or glyphosate 1120 g a.i./ha alone
From the text: (§1) Corn seeds (hybrid ‘Pioneer 38H69’) were planted in mid spring season, 5.1 cm deep in a silty clay loam soil having 3% organic matter and a pH of 6.5. Plots were 9.1 m long by 3.0 m wide with rows spaced 76 cm apart. The field was managed using conventional tillage practices. […] All treatments included a surfactant except glufosinate treatments, both alone and in combination. […] Results are summarized in Table 5 and are the means of the three replicates.

[2] = tested on: yellow foxtail (SETLU); test: Test 6 field trial, postemergence; type: in vivo, Setaria glauca; conditions: 1120 g a.i./ha
From the text: (§2) Corn seeds (hybrid ‘Pioneer 35Y62’) were planted in mid spring season, 3.8 cm deep in a silt loam soil having 4% organic matter and a pH of 5.8. Plots were 10.7 m long by 1.5 m wide with rows spaced 76 cm apart. Seeds were spaced 18 cm apart within the rows. The field was managed using conventional tillage practices. […] All treatments included a surfactant except glufosinate treatments, both alone and in combination. […] Results are summarized in Table 6 and are the means of the three replicates.

[3] = tested on: Pennsylvania smartweed (POLPY); test: Test 6 field trial, postemergence; type: in vivo, Polygonum pensylvanicum; conditions: 1120 g a.i./ha
From the text: as §2

[4] = tested on: redroot pigweed (AMARE); test: Test 6 field trial, postemergence; type: in vivo, Amaranthus retroflexus; conditions: 1120 g a.i./ha
From the text: as §2

[5] = tested on: common lambsquarters (CHEAL); test: Test 5 field trial, postemergence; type: in vivo, Chenopodium album; conditions: atrazine 1120, glufosinate 470 or glyphosate 1120 g a.i./ha alone
From the text: as §1

[6] = tested on: corn (ZEAMD); test: Test 6 field trial, postemergence; type: in vivo, Zea mays ssp. indentata; conditions: 1120 g a.i./ha
From the text: as §2

[7] = tested on: velvetleaf (ABUTH); test: Test 5 field trial, postemergence; type: in vivo, Abutilon theophrasti; conditions: atrazine 1120, glufosinate 470 or glyphosate 1120 g a.i./ha alone
From the text: as §1

[8] = tested on: jimsonweed (DATST); test: Test 8 field trial, preemergence; type: in vivo, Datura stramonium; conditions: g a.i./ha: Cpd 2 100, Atrazine 1680, S-Metolachlor 1870
From the text: (§3) Corn seeds (hybrid ‘Pioneer 31G96’) were planted in mid spring season, 3.8 cm deep in a clay loam soil having 2% organic matter and a pH of 6.6. Plots were 6.1 m long by 3.0 m wide with rows spaced 76 cm apart. Seeds were spaced 15 cm apart within the rows. The field was managed using conventional tillage practices. […] A few of the weed species could not be evaluated at every timing. […] Results are the means of the three replicates.

[9] = tested on: giant foxtail (SETFA); test: Test 8 field trial, preemergence; type: in vivo, Setaria faberi; conditions: g a.i./ha: Cpd 2 100, Atrazine 1680, S-Metolachlor 1870
From the text: as §3

[10] = tested on: corn (ZEAMD); test: Test 8 field trial, preemergence; type: in vivo, Zea mays ssp. indentata; conditions: g a.i./ha: Cpd 2 100, Atrazine 1680, S-Metolachlor 1870
From the text: as §3

[11] = tested on: common cocklebur (XANST); test: Test 10 field trial, preemergence; type: in vivo, Xanthium strumarium ssp. strumarium; conditions: 28 DAA; g a.i./ha: Cpd 2 100, Atrazine 1680, S-Metolachlor 1870
From the text: (§4) Corn seeds (hybrid ‘Pioneer 33P65 RR’) were planted in mid spring season, 2.5 cm deep in a silt loam soil. Plots were 9.1 m long by 3.0 m wide with rows spaced 76 cm apart. The field was managed using conventional tillage practices. […] Results are the means of the three replicates.

[12] = tested on: corn (ZEAMD); test: Test 10 field trial, preemergence; type: in vivo, Zea mays ssp. indentata; conditions: 28 DAA; g a.i./ha: Cpd 2 100, Atrazine 1680, S-Metolachlor 1870
From the text: as §4

[13] = tested on: common lambsquarters (CHEAL); test: Test 8 field trial, preemergence; type: in vivo, Chenopodium album; conditions: g a.i./ha: Cpd 2 100, Atrazine 1680, S-Metolachlor 1870
From the text: as §3

[14] = tested on: giant foxtail (SETFA); test: Test 10 field trial, preemergence; type: in vivo, Setaria faberi; conditions: 28 DAA; g a.i./ha: Cpd 2 100, Atrazine 1680, S-Metolachlor 1870
From the text: as §4

[15] = tested on: ivyleaf morningglory (IPOHE); test: Test 10 field trial, preemergence; type: in vivo, Ipomoea hederacea; conditions: 28 DAA; g a.i./ha: Cpd 2 100, Atrazine 1680, S-Metolachlor 1870
From the text: as §4

[16] = tested on: common waterhemp (AMATA); test: Test 10 field trial, preemergence; type: in vivo, Amaranthus tamariscinus; conditions: 28 DAA; g a.i./ha: Cpd 2 100, Atrazine 1680, S-Metolachlor 1870
From the text: as §4

[17] = tested on: tropical spiderwort (COMBE); test: Test 11 field trial, preemergence; type: in vivo, Commelina benghalensis; set-up: scale not given here
From the text: (§5) Corn seeds (hybrid ‘Pioneer 3041’) were planted in mid spring season, 5 cm deep in a clay soil having 2.6% organic matter and a pH of 5.6. Plots were 8 m long by 1.5 m wide with rows spaced 80 cm apart. Seeds were spaced 15 cm apart within the rows. The field was managed using conventional tillage practices. […] Treatments consisted of Compound 2 or
(§6) Goosegrass was not evaluated 16 or 91 days after application.

[18] = tested on: Ipomoea grandiflora (IPOGF); test: Test 11 field trial, preemergence; type: in vivo
From the text: as §5, §6

[19] = tested on: southern sandbur (CCHEC); test: Test 11 field trial, preemergence; type: in vivo, Cenchrus echinatus; set-up: scale not given here
From the text: as §5, §6

[20] = 16 DAA, Cpd 2/Cpd 1 at 62 g a.i./ha, alone or + atrazine 1500 or metolachlor 2500
[21] = 16 DAA, Cpd 2/Cpd 1 at 125 g a.i./ha, alone or + atrazine 1500 or metolachlor 2500
[22] = 30 DAA, Cpd 2/Cpd 1 at 62 g a.i./ha, alone or + atrazine 1500 or metolachlor 2500
[23] = 30 DAA, Cpd 2/Cpd 1 at 125 g a.i./ha, alone or + atrazine 1500 or metolachlor 2500
[24] = 44 DAA, Cpd 2/Cpd 1 at 62 g a.i./ha, alone or + atrazine 1500 or metolachlor 2500
[25] = 44 DAA, Cpd 2/Cpd 1 at 125 g a.i./ha, alone or + atrazine 1500 or metolachlor 2500
[26] = 62 DAA, Cpd 2/Cpd 1 at 62 g a.i./ha, alone or + atrazine 1500 or metolachlor 2500
[27] = 62 DAA, Cpd 2/Cpd 1 at 125 g a.i./ha, alone or + atrazine 1500 or metolachlor 2500
[28] = 91 DAA, Cpd 2/Cpd 1 at 62 g a.i./ha, alone or + atrazine 1500 or metolachlor 2500
[29] = 91 DAA, Cpd 2/Cpd 1 at 125 g a.i./ha, alone or + atrazine 1500 or metolachlor 2500
[30] = 16 DAA, atrazine 1500 or metolachlor 2500 g a.i./ha alone
[31] = 30 DAA, atrazine 1500 or metolachlor 2500 g a.i./ha alone
[32] = 44 DAA, atrazine 1500 or metolachlor 2500 g a.i./ha alone
[33] = 62 DAA, atrazine 1500 or metolachlor 2500 g a.i./ha alone
[34] = 91 DAA, atrazine 1500 or metolachlor 2500 g a.i./ha alone

O=C(O)CNCP(=O)(O)O [Glyphosate]
SETLU Obs ([1]; 16 DAA): 100% | SETLU Obs ([1]; 31 DAA): 98% | SETLU Obs ([2]; 14 DAA): 97% | SETLU Obs ([2]; 28 DAA): 96% | POLPY Obs ([3]; 14 DAA): 84% | POLPY Obs ([3]; 28 DAA): 91% | AMARE Obs ([4]; 14 DAA): 100% | AMARE Obs ([4]; 28 DAA): 100% | CHEAL Obs ([5]; 16 DAA): 100% | CHEAL Obs ([5]; 31 DAA): 97% | ZEAMD Obs ([6]; 14 DAA): 0% | ZEAMD Obs ([6]; 28 DAA): 0% | ABUTH Obs ([7]; 16 DAA): 84% | ABUTH Obs ([7]; 31 DAA): 84%

CCc1cccc(C)c1N(C(=O)CCl)[C@@H](C)COC [S-Metolachlor, S-metolachlor, reference compound]
DATST Obs ([8]; 19 DAA): 40% | DATST Obs ([8]; 29 DAA): 38% | DATST Obs ([8]; 56 DAA): 52% | SETFA Obs ([9]; 19 DAA): 93% | SETFA Obs ([9]; 29 DAA): 100% | SETFA Obs ([9]; 56 DAA): 94% | ZEAMD Obs ([10]; 19 DAA): 0% | ZEAMD Obs ([10]; 29 DAA): 3% | ZEAMD Obs ([10]; 56 DAA): 5% | XANST Obs [11]: 30% | ZEAMD Obs [12]: 0% | CHEAL Obs ([13]; 19 DAA): 45% | CHEAL Obs ([13]; 56 DAA): 23% | SETFA Obs [14]: 63% | IPOHE Obs [15]: 23% | AMATA Obs [16]: 70%

Nc1nc(C2CC2)nc(C(=O)O)c1Cl [Compound 1, 6-amino-5-chloro-2-cyclopropyl-4-pyrimidinecarboxylic acid]
COMBE Obs [17, 20]: 40 | COMBE Obs [17, 21]: 60 | COMBE Obs [17, 22]: 60 | COMBE Obs [17, 23]: 95 | COMBE Obs [17, 24]: 60 | COMBE Obs [17, 25]: 95 | COMBE Obs [17, 26]: 40 | COMBE Obs [17, 27]: 60 | COMBE Obs [17, 28]: 0 | COMBE Obs [17, 29]: 70 | IPOGF Obs [18, 20]: 20 | IPOGF Obs [18, 21]: 40 | IPOGF Obs [18, 22]: 40 | IPOGF Obs [18, 23]: 80 | IPOGF Obs ([18]; 44 DAA, 62 g a.i./ha, scale 0 to 100): 60 | IPOGF Obs ([18]; 44 DAA, 125 g a.i./ha, scale 0 to 100): 80 | IPOGF Obs ([18]; 62 DAA, 62 g a.i./ha, scale 0 to 100): 0 | IPOGF Obs ([18]; 62 DAA, 125 g a.i./ha, scale 0 to 100): 75 | IPOGF Obs ([18]; 91 DAA, 62 g a.i./ha, scale 0 to 100): 0 | IPOGF Obs ([18]; 91 DAA, 125 g a.i./ha, scale 0 to 100): 60 | CCHEC Obs [19, 20]: 40 | CCHEC Obs [19, 21]: 40 | CCHEC Obs [19, 22]: 20 | CCHEC Obs [19, 23]: 20 | CCHEC Obs [19, 24]: 0 | CCHEC Obs [19, 25]: 40 | CCHEC Obs [19, 26]: 0 | CCHEC Obs [19, 27]: 0 | CCHEC Obs [19, 28]: 0 | CCHEC Obs [19, 29]: 0

CCNc1nc(Cl)nc(NC(C)C)n1 [Atrazine, atrazine, reference compound]
DATST Obs ([8]; 19 DAA): 53% | DATST Obs ([8]; 29 DAA): 100% | DATST Obs ([8]; 56 DAA): 100% | SETFA Obs ([9]; 19 DAA): 60% | SETFA Obs ([9]; 29 DAA): 88% | SETFA Obs ([9]; 56 DAA): 67% | COMBE Obs [17, 30]: 99 | COMBE Obs [17, 31]: 100 | COMBE Obs [17, 32]: 100 | COMBE Obs [17, 33]: 97 | COMBE Obs [17, 34]: 95 | SETLU Obs ([1]; 16 DAA): 0% | SETLU Obs ([1]; 31 DAA): 0% | IPOGF Obs [18, 30]: 97 | IPOGF Obs [18, 31]: 97 | IPOGF Obs [18, 32]: 70 | IPOGF Obs ([18]; 62 DAA, 1500 g a.i./ha, scale 0 to 100): 50 | IPOGF Obs ([18]; 91 DAA, 1500 g a.i./ha, scale 0 to 100): 40 | ZEAMD Obs ([10]; 19 DAA): 5% | ZEAMD Obs ([10]; 29 DAA): 2% | ZEAMD Obs ([10]; 56 DAA): 3% | XANST Obs [11]: 40% | SETLU Obs ([2]; 14 DAA): 0% | SETLU Obs ([2]; 28 DAA): 0% | ZEAMD Obs [12]: 0% | CHEAL Obs ([13]; 19 DAA): 100% | CHEAL Obs ([13]; 56 DAA): 100% | CCHEC Obs [19, 30]: 60 | CCHEC Obs [19, 31]: 40 | CCHEC Obs [19, 32]: 40 | CCHEC Obs [19, 33]: 0 | CCHEC Obs [19, 34]: 0 | POLPY Obs ([3]; 14 DAA): 73% | POLPY Obs ([3]; 28 DAA): 83% | AMARE Obs ([4]; 14 DAA): 100% | AMARE Obs ([4]; 28 DAA): 100% | SETFA Obs [14]: 23% | CHEAL Obs ([5]; 16 DAA): 79% | CHEAL Obs ([5]; 31 DAA): 70% | IPOHE Obs [15]: 37% | ZEAMD Obs ([6]; 14 DAA): 0% | ZEAMD Obs ([6]; 28 DAA): 0% | ABUTH Obs ([7]; 16 DAA): 40% | ABUTH Obs ([7]; 31 DAA): 13% | AMATA Obs [16]: 83%

— patent US20100285959A1, “HERBICIDAL MIXTURES” (priority 2006, published 2010)
